Like-named read-outs stand apart in the source and are kept apart here.

One assay addresses RIPK1 (Homo sapiens (Human), UniProt Q13546). In words: RIPK1 ADP-Glo biochemical kinase assay. As for the experimental part:
The final reaction volume was 5.0ul.
Adding 5 μl of ADP-Glo™ terminated the reaction.
(In general: ADP-Glo turns the ADP formed in a reaction into a luminescent signal.)

Another assay concerns L929 cells. In words: L929 cell necroptosis assay (TNFa + zVAD, CellTiter-Glo). In kind it is cell-based, murine. The following applies: Mus musculus. The method, boiled down:
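Necroptosis was read as CellTiter-Glo luminescence 18 hours after TNFa stimulation at 37° C, 5% CO2. Prior to that, L929 cells (10K/well, plated 18 h) received fresh medium with 40 uM zVAD-fmk plus 4-fold serially diluted compound.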
On the technique in general: In ATP-based viability assays light output follows the ATP content of the culture.

A further assay relates to U937 cells. In words: U937 cell necroptosis assay (TNFa + zVAD, CellTiter-Glo). In kind it is cell-based, human. To be noted: Homo sapiens. The method, boiled down:
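Necroptosis was induced with TNFa at 2 ng/mL final for 18 h at 37 °C, following 1 h compound pre-incubation in the presence of zVAD-fmk (60 uM for U937 plating medium, 40 uM for L929 medium). Luminescent CellTiter-Glo signal gave relative cell survival.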

Setting [1] is: read-out: RIPK1 ADP-Glo Kinase (IC50).
[2] abbreviates: L929, L929 cells, TNFa + zVAD, read-out: L929-CTG-recovery, L929, TNFa + zVAD (IC50).
Where [3] appears, read: U-937, U937 cells, TNFa + zVAD, read-out: U937 Zvad TNF CTG Recovery, U937, TNFa + zVAD (IC50).
Where [4] appears, read: L929, read-out: L929-CTG-recovery, L929, TNFa + zVAD (IC50), L929 cells, TNFa + zVAD.
Setting [5] is: U-937, read-out: U937 Zvad TNF CTG Recovery, U937, TNFa + zVAD (IC50), U937 cells, TNFa + zVAD.

Sequence of RIPK1 (Q13546 whole entry, species assumed): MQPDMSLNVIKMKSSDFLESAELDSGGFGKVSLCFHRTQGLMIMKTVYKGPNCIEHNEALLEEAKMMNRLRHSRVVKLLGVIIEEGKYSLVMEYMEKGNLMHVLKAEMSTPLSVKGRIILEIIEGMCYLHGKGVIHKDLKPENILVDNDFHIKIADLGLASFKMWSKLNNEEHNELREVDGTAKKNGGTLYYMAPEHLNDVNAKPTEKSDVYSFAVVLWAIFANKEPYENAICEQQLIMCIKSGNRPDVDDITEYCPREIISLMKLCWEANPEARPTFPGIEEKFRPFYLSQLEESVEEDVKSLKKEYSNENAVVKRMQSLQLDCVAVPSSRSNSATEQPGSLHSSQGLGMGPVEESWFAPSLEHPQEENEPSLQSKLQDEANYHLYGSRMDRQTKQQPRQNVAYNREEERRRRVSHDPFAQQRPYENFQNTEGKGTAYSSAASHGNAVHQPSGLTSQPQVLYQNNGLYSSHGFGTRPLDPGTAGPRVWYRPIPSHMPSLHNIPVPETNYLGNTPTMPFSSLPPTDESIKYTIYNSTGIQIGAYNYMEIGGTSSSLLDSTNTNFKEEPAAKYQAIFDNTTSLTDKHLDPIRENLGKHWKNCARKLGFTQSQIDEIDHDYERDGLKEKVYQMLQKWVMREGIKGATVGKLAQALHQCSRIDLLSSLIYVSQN

The term IC50 denotes the concentration that gives 50% inhibition. In the case of `CN1C(=O)[C@@H](NC(=O)c2cc(Oc3ccccc3)ccn2)COc2ccc(C#CCO)cc21` [II-35, (S)—N-(7-(3-hydroxyprop-1-yn-1-yl)-5-methyl-4-oxo-2,3,4,5-tetrahydrobenzo[b][1,4]oxazepin-3-yl)-4-phenoxypicolinamide], the IC50 was 27.5 nM at RIPK1 (setting [1]), 164 nM in the assay with L929 cells (setting [2]) and 0.7 nM in the assay with U937 cells (setting [3]).
For the molecule `CN1C(=O)[C@@H](NC(=O)c2cc(Oc3ccccc3)ccn2)COc2ccc(C#CC3(O)CCCC3)cc21` [Compound I-98, (S)—N-(7-((1-hydroxycyclopentyl)ethynyl)-5-methyl-4-oxo-2,3,4,5-tetrahydrobenzo[b][1,4]oxazepin-3-yl)-4-phenoxypicolinamide], the IC50 against RIPK1 was 29.6 nM; in the assay on L929 cells (setting [2]), 36.8 nM; in the assay with U937 cells (setting [3]) it was 1.6 nM.
For the molecule `CN1C(=O)[C@@H](NC(=O)n2cc(Cc3ccc(F)cc3)cn2)COc2ccc(C#CC3(O)CCC3)cc21` [Compound I-221, (S)-4-(4-Fluorobenzyl)-N-(7-((l-hydroxycyclobutyl)ethynyl)-5-methyl-4-oxo-2,3,4,5-tetrahydrobenzo[b][1,4]oxazepin-3-yl)-1H-pyrazole-1-carboxamide], the concentration for half-maximal inhibition (IC50) came out at 39.7 nM at RIPK1 (setting [1]), 72.2 nM with L929 cells (setting [2]) and 2.5 nM with U937 cells (setting [3]).
Turning to `CN1C(=O)[C@@H](NC(=O)c2cc(Oc3ccc(C#N)cc3)ccn2)COc2ccc(C#CC3(O)COC3)cc21` [II-19, (S)-4-(4-cyanophenoxy)-N-(7-((3-hydroxyoxetan-3-yl)ethynyl)-5-methyl-4-oxo-2,3,4,5-tetrahydrobenzo[b][1,4]oxazepin-3-yl)picolinamide], the 50% inhibitory concentration (IC50) on RIPK1 (setting [1]) was 34.9 nM; in the assay with L929 cells (setting [4]), 2890 nM; in the assay on U937 cells (setting [5]), 55.5 nM.
Taken in the same sequence, the figures for `CN1C(=O)[C@@H](NC(=O)c2nnc(Cc3ccccc3)o2)COc2ccc(N3CC4(CCOCC4)C3)cc21` [Compound I-236, (S)-5-benzyl-N-(5-methyl-4-oxo-7-(7-oxa-2-azaspiro[3.5]nonan-2-yl)-2,3,4,5-tetrahydrobenzo[b][1,4]oxazepin-3-yl)-1,3,4-oxadiazole-2-carboxamide] were 55.9 nM, 258 nM and 6.6 nM.
Consider `CN1C(=O)[C@@H](NC(=O)c2cc(Oc3ccc(F)cc3)ccn2)COc2ccc(C#CC(C)(C)C)cc21` [Compound I-101, (S)—N-(7-(3,3-dimethylbut-1-yn-1-yl)-5-methyl-4-oxo-2,3,4,5-tetrahydrobenzo[b][1,4]oxazepin-3-yl)-4-(4-fluorophenoxy)picolinamide], for which the half-inhibitory concentration (IC50) is 133 nM on RIPK1 (setting [1]), 668 nM in the assay with L929 cells (setting [2]) and 36.3 nM in the assay on U937 cells (setting [3]).
`COC(=O)C#Cc1ccc2c(c1)N(C)C(=O)[C@@H](NC(=O)c1cc(Oc3ccccc3)ccn1)CO2` [Compound I-159, Methyl (S)-3-(5-methyl-4-oxo-3-(4-phenoxypicolinamido)-2,3,4,5-tetrahydrobenzo[b][1,4]oxazepin-7-yl)propiolate]: the IC50 worked out at 17.5 nM on RIPK1 (setting [1]), 16100 nM in the assay with L929 cells (setting [2]) and 21 nM in the assay on U937 cells (setting [3]).
The matching figures for `CN1C(=O)[C@@H](NC(=O)c2ncn(Cc3ccccc3F)n2)COc2ccc(CCC(=O)O)cc21` [Compound I-6, (S)-3-(3-(1-(2-fluorobenzyl)-1H-1,2,4-triazole-3-carboxamido)-5-methyl-4-oxo-2,3,4,5-tetrahydrobenzo[b][1,4]oxazepin-7-yl)propanoic acid]: 72.4 nM, 97500 nM and 43.8 nM.
Consider `CN1C(=O)[C@@H](NC(=O)c2cc(Oc3ccccc3)ccn2)COc2ccc(C#CC3(O)CN(C(=O)C(F)(F)F)C3)cc21` [Compound I-151, (S)—N-(7-((3-hydroxy-1-(2,2,2-trifluoroacetyl)azetidin-3-yl)ethynyl)-5-methyl-4-oxo-2,3,4,5-tetrahydrobenzo[b][1,4]oxazepin-3-yl)-4-phenoxypicolinamide], for which the 50% inhibitory concentration (IC50) at RIPK1 (setting [1]) stood at 55.4 nM; with L929 cells (setting [4]), 1080 nM; in the assay with U937 cells (setting [5]) it was 17 nM.
Turning to `CN1C(=O)[C@@H](NC(=O)c2n[nH]c(Cc3ccccc3)n2)COc2ccc(CN3CCn4ncnc4C3)cc21` [Compound I-24, (S)-5-benzyl-N-(7-((5,6-dihydro-[1,2,4]triazolo[1,5-a]pyrazin-7(8H)-yl)methyl)-5-methyl-4-oxo-2,3,4,5-tetrahydrobenzo[b][1,4]oxazepin-3-yl)-1H-1,2,4-triazole-3-carboxamide], the figures for the half-inhibitory concentration (IC50) on RIPK1 (setting [1]), with L929 cells (setting [2]) and in the assay on U937 cells (setting [3]) were 59.2 nM, 4610 nM and 3.6 nM, respectively.
On to `CN1C(=O)[C@@H](NC(=O)c2n[nH]c(Cc3ccccc3)n2)COc2ccc(CCCCNc3ccccn3)cc21` [Compound I-17, (S)-5-benzyl-N-(5-methyl-4-oxo-7-(4-(pyridin-2-ylamino)butyl)-2,3,4,5-tetrahydrobenzo[b][1,4]oxazepin-3-yl)-1H-1,2,4-triazole-3-carboxamide], for which the values for the 50% inhibitory concentration (IC50) on RIPK1 (setting [1]), in the assay with L929 cells (setting [2]) and in the assay with U937 cells (setting [3]) were 491 nM, 368 nM and 2.4 nM, respectively.
`CN1C(=O)[C@@H](NC(=O)c2cc(-c3ccccc3)ccn2)COc2ccc(C#CC(C)(C)O)cc21` [II-20, (S)—N-(7-(3-hydroxy-3-methylbut-1-yn-1-yl)-5-methyl-4-oxo-2,3,4,5-tetrahydrobenzo[b][1,4]oxazepin-3-yl)-4-phenylpicolinamide]: the IC50 at RIPK1 (setting [1]) is 40.3 nM; in the assay with L929 cells (setting [4]), 14600 nM; in the assay with U937 cells (setting [5]), 31.6 nM.
On to `CCN1C(=O)[C@@H](NC(=O)c2n[nH]c(Cc3cccc(F)c3)n2)COc2ccc(C#CC(C)(C)O)cc21` [Compound I-92, (S)—N-(5-ethyl-7-(3-hydroxy-3-methylbut-1-yn-1-yl)-4-oxo-2,3,4,5-tetrahydrobenzo[b][1,4]oxazepin-3-yl)-5-(3-fluorobenzyl)-1H-1,2,4-triazole-3-carboxamide], for which the results for the IC50 at RIPK1 (setting [1]), in the assay with L929 cells (setting [2]) and with U937 cells (setting [3]) were 932 nM, 430 nM and 4840 nM, respectively.
As to `CN1C(=O)[C@@H](NC(=O)c2cc(Oc3ccc(F)cc3F)ccn2)COc2ccc(C#CC3(O)COC3)cc21` [Compound I-114, (S)-4-(2,4-difluorophenoxy)-N-(7-((3-hydroxyoxetan-3-yl)ethynyl)-5-methyl-4-oxo-2,3,4,5-tetrahydrobenzo[b][1,4]oxazepin-3-yl)picolinamide], the IC50 was found to be 20.2 nM at RIPK1 (setting [1]), 90.4 nM with L929 cells (setting [2]) and 4.7 nM in the assay on U937 cells (setting [3]).
Taken in the same sequence, the figures for `CN1C(=O)[C@@H](NC(=O)c2cc(Oc3ccccc3)ccn2)COc2ccc(C#Cc3cn(C)cn3)cc21` [Compound I-203, (S)—N-(5-methyl-7-((1-methyl-1H-imidazol-4-yl)ethynyl)-4-oxo-2,3,4,5-tetrahydrobenzo[b][1,4]oxazepin-3-yl)-4-phenoxypicolinamide] were 23.4 nM, 4 nM and 0.4 nM.
For `CN1C(=O)[C@@H](NC(=O)n2cc(Cc3ccc(F)cc3)cn2)COc2ccc(C#CC3(O)CC4(COC4)C3)cc21` [Compound I-225, (S)-4-(4-Fluorobenzyl)-N-(7-((6-hydroxy-2-oxaspiro[3.3]heptan-6-yl)ethynyl)-5-methyl-4-oxo-2,3,4,5-tetrahydrobenzo[b][1,4]oxazepin-3-yl)-1H-pyrazole-1-carboxamide], the IC50 amounted to 22.7 nM on RIPK1 (setting [1]), 32.5 nM in the assay with L929 cells (setting [2]) and 0.5 nM in the assay with U937 cells (setting [3]).
Take `Cc1c(Cc2ccccc2)cnn1C(=O)N[C@H]1COc2ccc(C#CC(C)(C)O)cc2N(C)C1=O` [Compound I-220, (S)-4-Benzyl-N-(7-(3-hydroxy-3-methylbut-1-yn-1-yl)-5-methyl-4-oxo-2,3,4,5-tetrahydrobenzo[b][1,4]oxazepin-3-yl)-5-methyl-1H-pyrazole-1-carboxamide]: the 50% inhibitory concentration (IC50) on RIPK1 (setting [1]) is 35.5 nM; in the assay with L929 cells (setting [2]), 1920 nM; in the assay with U937 cells (setting [3]) it was 8.9 nM.
`CN1C(=O)[C@@H](NC(=O)n2cc(Cc3ccccc3)cn2)COc2ccc(C#CC3(O)COC3)cc21` [Compound I-216, (S)-4-Benzyl-N-(7-((3-hydroxyoxetan-3-yl)ethynyl)-5-methyl-4-oxo-2,3,4,5-tetrahydrobenzo[b][1,4]oxazepin-3-yl)-1H-pyrazole-1-carboxamide]: the 50% inhibitory concentration (IC50) on RIPK1 (setting [1]) was determined as 18.8 nM; in the assay with L929 cells (setting [4]), 28.5 nM; in the assay on U937 cells (setting [5]), 0.5 nM.
As to `CN1C(=O)[C@@H](NC(=O)c2n[nH]c(Cc3ccccc3)n2)COc2ccc(C#C[C@@]3(O)CO[C@@H]4[C@@H](OC(=O)c5ccccc5)CO[C@@H]43)cc21` [Compound I-74, (3S,3aR,6R,6aS)-6-(((S)-3-(5-benzyl-1H-1,2,4-triazole-3-carboxamido)-5-methyl-4-oxo-2,3,4,5-tetrahydrobenzo[b][1,4]oxazepin-7-yl)ethynyl)-6-hydroxyhexahydrofuro[3,2-b]furan-3-yl benzoate], the IC50 at RIPK1 (setting [1]) amounted to 51.8 nM; with L929 cells (setting [2]) it was 0.2 nM; with U937 cells (setting [3]), 1.4 nM.
The matching figures for `CN1C(=O)[C@@H](NC(=O)c2n[nH]c(Cc3ccccc3)n2)COc2ccc(C#CCCOc3cccc4ncccc34)cc21` [Compound I-45, (S)-5-benzyl-N-(5-methyl-4-oxo-7-(4-(quinolin-5-yloxy)but-1-yn-1-yl)-2,3,4,5-tetrahydrobenzo[b][1,4]oxazepin-3-yl)-1H-1,2,4-triazole-3-carboxamide]: 82.5 nM, 0.3 nM and 1.4 nM.
